For six compounds, ED90 results are on record in ChEMBL document CHEMBL1127265, “Synthesis of a novel ring contracted artemisinin derivative” (1994).

The species named for the assay is Mus musculus. Put plainly: Blood schizonticidal activity in mice model with Plasmodium berghei k-173 infection was determined. In kind it is functional.

In the case of `C[C@@H]1CCC2[C@]34OOC(C)(CCC13)O[C@H]4O[C@]2(C)CO` (single isomer, unassigned), the ED90 turned out to be 25 mg/kg. For `CC1OC2OC3(C)CCC4[C@H](C)CCC([C@H]1C)[C@@]24OO3.O` (single isomer, unassigned) the value was 10 mg/kg. The same measure for `C[C@@H]1CCC2[C@@H](C)[C@H](OC[C@@]3(C)OC4OC5(C)CCC6[C@H](C)CCC3[C@@]46OO5)OC3OC4(C)CCC1[C@]32OO4` (single isomer, unassigned): 2.5 mg/kg; for `C[C@@H]1CCC2[C@@H](C)[C@@H](OC[C@]3(C)OC4OC5(C)CCC6[C@@H](C)CCC3[C@]46OO5)OC3OC4(C)CCC1[C@]32OO4` (single isomer, unassigned): 1.25 mg/kg; for `C[C@@H]1CCC2[C@]34OOC(C)(CCC13)O[C@H]4O[C@]2(C)C=O` (single isomer, unassigned): 25 mg/kg. For `CCO[C@H]1O[C@@H]2O[C@@]3(C)CC[C@H]4[C@H](C)CC[C@@H]([C@H]1C)[C@@]24OO3` [ARTEMOTIL] the value was 1.25 mg/kg.
